Laboratory results reported in patent publication US8344008B2 (Janssen Pharmaceutica NV, priority 2007, dated 2013).

biological target: T1, recombinant human LTA4 hydrolase (rhLTA4H) (Homo sapiens, UniProt P09960); experiment: Recombinant Human LTA4 Hydrolase Assay for LTA4 Hydrolase Inhibitor Activity; format: biochemical; conditions: average of results obtained; LTB4 quantified by enzyme-linked immunoassay
T1 construct: made in house; host or cells: Spodoptera frugiperda (Sf-9) cells, baculovirus (pFastBac1)
T1 sequence (P09960 1-611): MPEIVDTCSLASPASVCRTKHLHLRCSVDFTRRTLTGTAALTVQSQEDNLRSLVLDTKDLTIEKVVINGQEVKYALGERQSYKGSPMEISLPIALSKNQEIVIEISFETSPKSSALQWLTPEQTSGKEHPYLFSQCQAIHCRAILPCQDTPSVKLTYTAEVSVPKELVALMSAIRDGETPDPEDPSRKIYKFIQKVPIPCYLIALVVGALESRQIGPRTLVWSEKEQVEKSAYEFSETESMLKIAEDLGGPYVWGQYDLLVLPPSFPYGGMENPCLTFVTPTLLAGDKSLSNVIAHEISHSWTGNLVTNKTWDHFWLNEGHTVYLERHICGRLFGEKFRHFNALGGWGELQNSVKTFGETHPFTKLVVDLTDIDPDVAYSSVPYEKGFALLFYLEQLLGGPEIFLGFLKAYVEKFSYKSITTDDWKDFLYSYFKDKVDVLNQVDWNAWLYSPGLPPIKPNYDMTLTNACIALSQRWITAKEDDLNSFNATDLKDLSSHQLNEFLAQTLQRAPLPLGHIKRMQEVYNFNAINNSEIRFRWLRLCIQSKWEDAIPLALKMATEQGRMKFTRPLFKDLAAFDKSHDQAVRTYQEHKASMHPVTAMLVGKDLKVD
Description: Biological Methods: Recombinant Human LTA4 Hydrolase Assay for LTA4 Hydrolase Inhibitor Activity
Compounds of the present invention were tested for LTA4 hydrolase inhibitor activity against recombinant human LTA4 hydrolase (rhLTA4H). Vectors were prepared and used to express rhLTA4H essentially as follows: LTA4 hydrolase encoding DNA was amplified by polymerase chain reaction (PCR) using a human placental cDNA library as a template. Oligonucleotide primers for the PCR reaction were based on the 5′-end, and the complement of the 3′-end, of the published nucleotide sequence for the coding region of the human LTA4 hydrolase gene (C. D. Funk et al., Proc. Natl. Acad. Sci. USA 1987, 84:6677-6681). The amplified 1.9 kb DNA fragment encoding LTA4 hydrolase was isolated and cloned into the pFastBac1 vector (Invitrogen). Recombinant baculovirus was generated as described by the manufacturer, and used to infect Spodoptera frugiperda (Sf-9) cells. Recombinant LTA4 hydrolase enzyme was purified from the infected Sf-9 cells essentially as described by J. K. Gierse et al. (Protein Expression and Purification 1993, 4:358-366). The purified enzyme solution was adjusted to contain 0.29 mg/mL LTA4 hydrolase, 50 mM Tris (pH 8.0), 150 mM NaCl, 5 mM dithiothreitol, 50% glycerol, and EDTA-free Complete protease inhibitor cocktail (Roche). The specific activity of the enzyme was about 3.8 μmol/min/mg.
LTA4 substrate was prepared from the methyl ester of LTA4 (Cayman Chemical) by treatment with 67 equiv of NaOH under nitrogen at rt for 40 min. The LTA4 substrate in its free acid form was kept frozen at −80° C. until needed. Each compound was diluted to different concentrations in assay buffer (0.1 M potassium phosphate (pH 7.4), 5 mg/mL fatty acid free BSA) containing 10% DMSO. A 25-uL aliquot of each compound dilution was incubated for 10 min at rt with an equal volume of assay buffer containing 36 ng of recombinant human LTA4H. The solution was then adjusted to 200 μL with assay buffer. LTA4 (free acid) was thawed and diluted in assay buffer to a concentration of 357 ng/mL, and 25 μL (9 ng) of LTA4 substrate was added to the reaction mixture (total volume=225 μL) at time zero. Each reaction was carried out at rt for 10 min. The reaction was stopped by diluting 10 μL of the reaction mixture with 200 μL of assay buffer. LTB4 was quantified in the diluted sample by a commercially available enzyme-linked immunoassay (Cayman Chemical Co.), as recommended by the manufacturer. Positive controls, under essentially identical conditions but without addition of an inhibitor compound, and negative controls, containing all assay components except enzyme, were routinely run in each experiment. […]
Results for the compounds tested in this assay are presented in Table 1 as an average of results obtained.

Row | Ki [nM] | Compound
1 | 8 | CS(=O)(=O)N1CC2CCC(C1)N2Cc1ccc(Oc2nc3c(F)cccc3s2)cc1 [Example 258, meso-4-Fluoro-2-[4-(3-methanesulfonyl-3,8-diaza-bicyclo[3.2.1]oct-8-ylmethyl)-phenoxy]-benzothiazole]
2 | 12 | NC(=O)N1C[C@H]2C[C@@H]1CN2CCc1ccc(Oc2nc3cccc(F)c3s2)cc1 [Example 245, (R,R)-5-{2-[4-(7-Fluoro-benzothiazol-2-yloxy)-phenyl]-ethyl}-2,5-diaza-bicyclo[2.2.1]heptane-2-carboxylic acid amide]
3 | 8 | CC(=O)N[C@@H]1C[C@H]2CC[C@@H](C1)N2CCOc1ccc(Oc2nc3ccc(F)cc3s2)cc1 [Example 227, meso-exo-N-(8-{2-[4-(6-Fluoro-benzothiazol-2-yloxy)-phenoxy]-ethyl}-8-aza-bicyclo[3.2.1]oct-3-yl)-acetamide]
4 | 39 | O=C(CO)N1C[C@@H]2C[C@H]1CN2Cc1ccc(Oc2nc3ccccc3s2)cc1F [Example 78, (S,S)-1-{5-[4-(Benzothiazol-2-yloxy)-2-fluoro-benzyl]-2,5-diaza-bicyclo[2.2.1]hept-2-yl}-2-hydroxy-ethanone]
5 | 52 | CC(C)(O)C(=O)N1C[C@H]2C[C@@H]1CN2Cc1ccc(Oc2nc3ccccc3s2)cc1 [Example 24, (R,R)-1-{5-[4-(Benzothiazol-2-yloxy)-benzyl]-2,5-diaza-bicyclo[2.2.1]hept-2-yl}-2-hydroxy-2-methyl-propan-1-one]
6 | 2 | NC(=O)N[C@H]1C[C@H]2CC[C@@H](C1)N2Cc1ccc(Oc2nc3ccccc3s2)cc1 [Example 60, meso-endo-{8-[4-(Benzothiazol-2-yloxy)-benzyl]-8-aza-bicyclo[3.2.1]oct-3-yl}-urea]
7 | 61 | CS(=O)(=O)N1CC2CCC(C1)N2CCOc1ccc(Oc2nc3ccc(F)cc3s2)cc1 [Example 243, meso-6-Fluoro-2-{4-[2-(3-methanesulfonyl-3,8-diaza-bicyclo[3.2.1]oct-8-yl)-ethoxy]-phenoxy}-benzothiazole]
8 | 163 | CC(C)(O)C(=O)N1C[C@@H]2C[C@H]1CN2CCc1cccc(Oc2nc3ccccc3s2)c1 [Example 19, (S,S)-1-(5-{2-[3-(Benzothiazol-2-yloxy)-phenyl]-ethyl}-2,5-diaza-bicyclo[2.2.1]hept-2-yl)-2-hydroxy-2-methyl-propan-1-one]
9 | 72 | NS(=O)(=O)N1CC2CN(Cc3ccc(Oc4nc5ccccc5s4)cc3)CC2C1 (stereo not shown) [Example 119, 5-[4-(Benzothiazol-2-yloxy)-benzyl]-hexahydro-pyrrolo[3,4-c]pyrrole-2-sulfonic acid amide]
10 | 116 | NCC(=O)N1C2CCC1CN(Cc1ccc(Oc3nc4ccccc4s3)cc1)C2 [Example 55, meso-2-Amino-1-{3-[4-(benzothiazol-2-yloxy)-benzyl]-3,8-diaza-bicyclo[3.2.1]oct-8-yl}-ethanone]
11 | 35 | NC(=O)N1CC2CCN(Cc3ccc(Oc4nc5ccccc5s4)cc3)CC2C1 (racemic) [Example 141, (±)-5-[4-(Benzothiazol-2-yloxy)-benzyl]-octahydro-pyrrolo[3,4-c]pyridine-2-carboxylic acid amide]
12 | 18 | NC(=O)N1C[C@@H]2CCN(Cc3ccc(Oc4nc5ccccc5s4)cc3)[C@@H]2C1 [Example 137, (S,S)-1-[4-(Benzothiazol-2-yloxy)-benzyl]-hexahydro-pyrrolo[3,4-b]pyrrole-5-carboxylic acid amide]
13 | 29 | CS(=O)(=O)N[C@@H]1C[C@H]2CC[C@@H](C1)N2CCOc1ccc(Oc2nc3ccc(F)cc3s2)cc1 [Example 284, meso-exo-N-(8-{2-[4-(6-Fluoro-benzothiazol-2-yloxy)-phenoxy]-ethyl}-8-aza-bicyclo[3.2.1]oct-3-yl)-methanesulfonamide]
14 | 1660 | CC(=O)N[C@@H]1C[C@H]2CC[C@@H](C1)N2CCOc1ccc(Oc2nc3cccc(Cl)c3s2)cc1 [Example 195, meso-exo-N-(8-{2-[4-(7-Chloro-benzothiazol-2-yloxy)-phenoxy]-ethyl}-8-aza-bicyclo[3.2.1]oct-3-yl)-acetamide]
15 | 47 | NC(=O)N[C@@H]1C[C@H]2CC[C@@H](C1)N2CCc1ccc(Oc2nc3ccc(F)cc3s2)cc1 [Example 179, meso-exo-(8-{2-[4-(6-Fluoro-benzothiazol-2-yloxy)-phenyl]-ethyl}-8-aza-bicyclo[3.2.1]oct-3-yl)-urea]
16 | 97 | Cn1ccc(S(=O)(=O)N2CC3CN(Cc4ccc(Oc5nc6ccccc6s5)cc4)CC3C2)c1 (stereo not shown) [Example 123, 2-{4-[5-(1-Methyl-1H-pyrrole-3-sulfonyl)-hexahydro-pyrrolo[3,4-c]pyrrol-2-ylmethyl]-phenoxy}-benzothiazole]
17 | 86 | CC(=O)N[C@@H]1C[C@H]2CC[C@@H](C1)N2CCc1ccc(Oc2nc3ccc(Cl)cc3s2)cc1 [Example 163, meso-exo-N-(8-{2-[4-(6-Chloro-benzothiazol-2-yloxy)-phenyl]-ethyl}-8-aza-bicyclo[3.2.1]oct-3-yl)-acetamide]
18 | 20 | CC(=O)N1CC2CCC(C1)N2CCOc1ccc(Oc2nc3cc(F)ccc3s2)cc1 [Example 199, meso-1-(8-{2-[4-(5-Fluoro-benzothiazol-2-yloxy)-phenoxy]-ethyl}-3,8-diaza-bicyclo[3.2.1]oct-3-yl)-ethanone]
19 | 10 | COCC(=O)N1C[C@@H]2C[C@H]1CN2CCOc1ccc(Oc2nc3ccccc3s2)cc1 [Example 22, (S,S)-1-(5-{2-[4-(Benzothiazol-2-yloxy)-phenoxy]-ethyl}-2,5-diaza-bicyclo[2.2.1]hept-2-yl)-2-methoxy-ethanone]
20 | 69 | CC(=O)N1[C@@H]2CC[C@H]1C[C@H](NCCc1ccc(Oc3nc4ccc(F)cc4s3)cc1)C2 [Example 209, meso-exo-1-(3-{2-[4-(6-Fluoro-benzothiazol-2-yloxy)-phenyl]-ethylamino}-8-aza-bicyclo[3.2.1]oct-8-yl)-ethanone]
21 | 73 | O=C(CO)N1C[C@@H]2C[C@H]1CN2CCc1cccc(Oc2nc3ccccc3s2)c1 [Example 20, (S,S)-1-(5-{2-[3-(Benzothiazol-2-yloxy)-phenyl]-ethyl}-2,5-diaza-bicyclo[2.2.1]hept-2-yl)-2-hydroxy-ethanone]
22 | 13 | O=C(N1C[C@@H]2C[C@H]1CN2Cc1ccc(Oc2nc3ccccc3s2)cc1)C1(O)CC1 [Example 11, (S,S)-{5-[4-(Benzothiazol-2-yloxy)-benzyl]-2,5-diaza-bicyclo[2.2.1]hept-2-yl}-(1-hydroxy-cyclopropyl)-methanone]
23 | 121 | CC(=O)N1C[C@H]2C[C@@H]1CN2CCc1ccc(Oc2nc3cc(Cl)ccc3s2)cc1 [Example 274, (R,R)-1-(5-{2-[4-(5-Chloro-benzothiazol-2-yloxy)-phenyl]-ethyl}-2,5-diaza-bicyclo[2.2.1]hept-2-yl)-ethanone]
24 | 597 | Cc1ccc2nc(Oc3ccc(CN4CC5CN(C(N)=O)CC5C4)cc3)sc2c1 (stereo not shown) [Example 145, 5-[4-(6-Methyl-benzothiazol-2-yloxy)-benzyl]-hexahydro-pyrrolo[3,4-c]pyrrole-2-carboxylic acid amide]
25 | 64 | CC(=O)N[C@@H]1C[C@H]2CC[C@@H](C1)N2CCc1ccc(Oc2nc3cc(F)ccc3s2)cc1 [Example 266, meso-exo-N-(8-{2-[4-(5-Fluoro-benzothiazol-2-yloxy)-phenyl]-ethyl}-8-aza-bicyclo[3.2.1]oct-3-yl)-acetamide]
